PMC11898738 (mBio, 2025)

Experiments:
BbPMI = biological target: T1, BbPMI (Borreliella burgdorferi, UniProt O51368); experiment: coupled PGI/G6PDH assay, NADPH at […] nm; format: biochemical
T1 construct: gene manA

type IV collagen = type IV collagen (UniProt P02462 173-1669; P08572 184-1712); experiment: MST; BbPMI labeled with RED-NHS dye at constant 5 nM; serial dilutions of collagen IV or controls; PBS + 0.05% Tween-20; 15 minutes at RT; standard capillaries, 10% excitation, 40% MST power; T-Jump analysis; conditions: both partners purified

| Molecule | IC50 (BbPMI) [nM] | Kd (type IV collagen) [nM] |
| --- | --- | --- |
| Cc1ccc(C)c(-n2sc3cc(F)ccc3c2=O)c1 [MLS0315771, 2-(2,5-dimethylphenyl)-6-fluorobenzo[d]isothiazol-3(2H)-one] | 600 to 900 | – |
| O=c1c2ccc(F)cc2sn1-c1ccccc1 [NCGC00871019-01] | ~500 | – |
| Cc1ccc(C)c(-n2sc3ccc(F)cc3c2=O)c1 [NCGC00871020-01] | ~500 | – |
| COc1ccc(-n2sc3ccc(F)cc3c2=O)cc1 [NCGC00871021-01] | ~500 | – |
| recombinant BbPMI labeled with RED-NHS dye (BbPMI-NT647) (enzyme, labeled using RED-NHS dye (NT647)) MNNEDNIFLMKNNIKEYDWGGINFIPNLLGDKIDGKPKAEMWLGAHKTFSSKILYKNEYVLLSDFLEDHKELLGCNDEFPFLLKVLSANKPLSIQIHPSKDIALKGYESENNKGIDINDPKRTYKDKNPKIELIYALSDFYALKGFLPLDEIKKIYEILELNFDFQSHKDFVKTIFDLQMYELEKIIEKILKNLDLIDNFRGYWFNEIYNIYGIDVGLLVFLGMNILKLKPGEVVYTNSQEVHAYLKGDCIELMTNSDNVIRAGLTTKYIDKDEMLRVGQFEEGKLSFLNPDFQDNFSVFRLPNTNLKLIQKKINENICINRNSAMVLLVLNGCVSINKSLNLKKGESIFIGKKAENLFIDGDGEAFIAGFN | – | 128 ± 45.1 |
